{"source": "ChEMBL document CHEMBL4800729", "about": "(2021)", "key": {"[1]": {"biological_target": "TGF-beta receptor type-2 (Homo sapiens) (UniProt P37173)", "sequence (P37173 whole entry)": "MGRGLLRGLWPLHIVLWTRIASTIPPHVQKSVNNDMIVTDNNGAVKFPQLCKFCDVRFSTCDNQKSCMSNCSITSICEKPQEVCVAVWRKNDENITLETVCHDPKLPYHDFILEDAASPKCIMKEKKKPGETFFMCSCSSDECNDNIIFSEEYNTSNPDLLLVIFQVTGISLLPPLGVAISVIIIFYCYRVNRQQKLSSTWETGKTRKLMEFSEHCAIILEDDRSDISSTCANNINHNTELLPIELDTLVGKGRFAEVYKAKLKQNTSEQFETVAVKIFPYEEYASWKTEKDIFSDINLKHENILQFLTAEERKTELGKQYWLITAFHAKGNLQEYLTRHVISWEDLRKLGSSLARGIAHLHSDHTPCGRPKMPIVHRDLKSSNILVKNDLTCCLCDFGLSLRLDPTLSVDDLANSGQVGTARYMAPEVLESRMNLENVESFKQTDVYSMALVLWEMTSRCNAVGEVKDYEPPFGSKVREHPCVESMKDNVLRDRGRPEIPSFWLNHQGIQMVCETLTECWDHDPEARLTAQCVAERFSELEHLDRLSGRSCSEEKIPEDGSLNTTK", "assay": "TGFBR2(h) Millipore kinase panel", "conditions": "Compound concentration 1.0 uM"}, "[2]": {"biological_target": "Cyclin-dependent kinase 5/CDK5 activator 1 (Homo sapiens) (UniProt Q00535+Q15078)", "assay": "CDK5/p25(h) Millipore kinase panel", "type": "protein-complex assay", "conditions": "Compound concentration 1.0 uM"}, "[3]": {"biological_target": "Cyclin-dependent kinase 4/cyclin D (Homo sapiens) (UniProt P11802+P24385+P30281+P30279)", "assay": "CDK4/cyclinD Millipore kinase panel", "type": "protein-complex assay", "conditions": "Compound concentration 1.0 uM"}, "[4]": {"biological_target": "Myosin light chain kinase (Homo sapiens) (UniProt Q32MK0)", "assay": "MLCK(h) Millipore kinase panel", "conditions": "Compound concentration 1.0 uM"}, "[5]": {"biological_target": "Wee1-like protein kinase (Homo sapiens) (UniProt P30291)", "assay": "WEE1(h) Millipore kinase panel", "conditions": "Compound concentration 1.0 uM"}, "[6]": {"biological_target": "Serine/threonine-protein kinase WNK2 (Homo sapiens) (UniProt Q9Y3S1)", "assay": "WNK2(h) Millipore kinase panel", "conditions": "Compound concentration 1.0 uM"}, "[7]": {"biological_target": "Testis-specific serine/threonine-protein kinase 2 (Homo sapiens) (UniProt Q96PF2)", "sequence (Q96PF2 whole entry)": "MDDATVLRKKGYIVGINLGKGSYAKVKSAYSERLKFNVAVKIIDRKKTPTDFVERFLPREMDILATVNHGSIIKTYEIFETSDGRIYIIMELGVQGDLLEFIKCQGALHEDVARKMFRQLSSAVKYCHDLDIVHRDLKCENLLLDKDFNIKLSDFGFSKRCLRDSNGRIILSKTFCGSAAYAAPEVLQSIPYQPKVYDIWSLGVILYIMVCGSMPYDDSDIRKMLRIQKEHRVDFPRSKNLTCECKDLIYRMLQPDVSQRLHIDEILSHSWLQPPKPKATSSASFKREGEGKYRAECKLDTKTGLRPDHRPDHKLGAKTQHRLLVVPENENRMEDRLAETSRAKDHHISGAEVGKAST", "assay": "TSSK2(h) Millipore kinase panel", "conditions": "Compound concentration 1.0 uM"}, "[8]": {"biological_target": "Fibroblast growth factor receptor 1 (Homo sapiens) (UniProt P11362)", "assay": "FGFR1(h) Millipore kinase panel", "conditions": "Compound concentration 1.0 uM"}, "[9]": {"biological_target": "Serine/threonine-protein kinase 10 (Homo sapiens) (UniProt O94804)", "assay": "LOK(h) Millipore kinase panel", "conditions": "Compound concentration 1.0 uM"}, "[10]": {"biological_target": "Casein kinase I isoform alpha (Homo sapiens) (UniProt P48729)", "assay": "CK1alpha(h) Millipore kinase panel", "conditions": "Compound concentration 1.0 uM"}, "[11]": {"biological_target": "Protein kinase C epsilon type (Homo sapiens) (UniProt Q02156)", "assay": "PKCepsilon(h) Millipore kinase panel", "conditions": "Compound concentration 1.0 uM"}, "[12]": {"biological_target": "Mitogen-activated protein kinase 1 (Homo sapiens) (UniProt P28482)", "assay": "MAPK2(h) Millipore kinase panel", "conditions": "Compound concentration 1.0 uM"}, "[13]": {"biological_target": "Platelet-derived growth factor receptor beta (Homo sapiens) (UniProt P09619)", "assay": "PDGFRbeta(h) Millipore kinase panel", "conditions": "Compound concentration 1.0 uM"}, "[14]": {"biological_target": "Mu-type opioid receptor (Homo sapiens) (UniProt P35372)", "conditions": "Compound concentration 10.0 uM"}, "[15]": {"biological_target": "Sodium-dependent serotonin transporter (Homo sapiens) (UniProt P31645)", "conditions": "Compound concentration 10.0 uM"}, "[16]": {"biological_target": "Ephrin type-A receptor 2 (Homo sapiens) (UniProt P29317)", "sequence (P29317 whole entry)": "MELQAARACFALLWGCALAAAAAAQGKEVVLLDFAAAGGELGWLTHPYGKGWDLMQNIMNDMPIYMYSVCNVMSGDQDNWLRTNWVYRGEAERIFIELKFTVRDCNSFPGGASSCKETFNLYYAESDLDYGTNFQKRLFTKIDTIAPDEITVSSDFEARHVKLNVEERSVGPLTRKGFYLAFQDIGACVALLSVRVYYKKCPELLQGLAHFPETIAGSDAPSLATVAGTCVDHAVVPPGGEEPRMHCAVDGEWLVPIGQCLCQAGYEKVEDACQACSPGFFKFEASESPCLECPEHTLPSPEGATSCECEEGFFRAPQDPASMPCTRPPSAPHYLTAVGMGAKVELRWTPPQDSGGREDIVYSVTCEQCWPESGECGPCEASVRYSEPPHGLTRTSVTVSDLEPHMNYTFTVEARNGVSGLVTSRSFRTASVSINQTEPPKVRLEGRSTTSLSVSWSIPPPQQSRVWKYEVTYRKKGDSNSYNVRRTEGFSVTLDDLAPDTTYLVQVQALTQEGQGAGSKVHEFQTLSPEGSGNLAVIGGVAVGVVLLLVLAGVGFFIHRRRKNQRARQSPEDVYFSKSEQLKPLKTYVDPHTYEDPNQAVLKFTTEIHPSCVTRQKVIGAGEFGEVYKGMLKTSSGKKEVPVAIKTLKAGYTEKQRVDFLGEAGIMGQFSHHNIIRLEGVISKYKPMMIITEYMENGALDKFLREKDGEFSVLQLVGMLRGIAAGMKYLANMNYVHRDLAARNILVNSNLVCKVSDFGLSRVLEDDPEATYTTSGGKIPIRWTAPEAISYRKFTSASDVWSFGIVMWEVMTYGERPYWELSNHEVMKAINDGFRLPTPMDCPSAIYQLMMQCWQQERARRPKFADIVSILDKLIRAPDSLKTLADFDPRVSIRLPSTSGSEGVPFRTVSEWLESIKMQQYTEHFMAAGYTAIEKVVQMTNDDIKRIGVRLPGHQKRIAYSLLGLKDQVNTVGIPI", "assay": "EphA2(h) Millipore kinase panel", "conditions": "Compound concentration 1.0 uM"}, "[17]": {"biological_target": "Serine/threonine-protein kinase 25 (Homo sapiens) (UniProt O00506)", "sequence (O00506 whole entry, looked up)": "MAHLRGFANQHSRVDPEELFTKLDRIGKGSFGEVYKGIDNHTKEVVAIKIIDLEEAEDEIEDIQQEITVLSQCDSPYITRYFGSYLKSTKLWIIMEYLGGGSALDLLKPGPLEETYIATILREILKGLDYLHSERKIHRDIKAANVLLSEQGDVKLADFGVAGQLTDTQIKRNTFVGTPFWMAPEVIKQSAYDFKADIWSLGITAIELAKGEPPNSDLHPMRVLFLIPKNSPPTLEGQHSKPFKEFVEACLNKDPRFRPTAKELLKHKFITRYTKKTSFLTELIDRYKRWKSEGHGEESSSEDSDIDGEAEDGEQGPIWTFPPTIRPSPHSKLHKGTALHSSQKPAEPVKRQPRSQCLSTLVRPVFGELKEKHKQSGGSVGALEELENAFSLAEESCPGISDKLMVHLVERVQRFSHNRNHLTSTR", "assay": "STK25(h) Millipore kinase panel", "conditions": "Compound concentration 1.0 uM"}, "[18]": {"biological_target": "RAF proto-oncogene serine/threonine-protein kinase (Homo sapiens) (UniProt P04049)", "assay": "c-RAF(h) Millipore kinase panel", "conditions": "Compound concentration 1.0 uM"}, "[19]": {"biological_target": "5-hydroxytryptamine receptor 2B (Homo sapiens, UniProt P41595)", "sequence (P41595 whole entry)": "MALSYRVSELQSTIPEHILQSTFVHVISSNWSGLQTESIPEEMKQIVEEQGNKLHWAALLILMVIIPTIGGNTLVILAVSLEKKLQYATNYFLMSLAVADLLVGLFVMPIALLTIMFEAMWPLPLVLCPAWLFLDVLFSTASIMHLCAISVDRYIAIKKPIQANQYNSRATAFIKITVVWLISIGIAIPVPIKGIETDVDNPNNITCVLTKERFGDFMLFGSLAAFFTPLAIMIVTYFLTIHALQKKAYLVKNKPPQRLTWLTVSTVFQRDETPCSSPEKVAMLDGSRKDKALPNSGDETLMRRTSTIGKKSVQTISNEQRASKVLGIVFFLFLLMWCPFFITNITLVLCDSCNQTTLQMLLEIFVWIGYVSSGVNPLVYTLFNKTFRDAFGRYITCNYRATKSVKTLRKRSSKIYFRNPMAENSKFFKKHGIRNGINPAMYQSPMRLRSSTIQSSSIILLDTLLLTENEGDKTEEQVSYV", "conditions": "Compound concentration 10.0 uM"}, "[20]": {"biological_target": "NUAK family SNF1-like kinase 2 (Homo sapiens) (UniProt Q9H093)", "assay": "NUAK2(h) Millipore kinase panel", "conditions": "Compound concentration 1.0 uM"}, "[21]": {"biological_target": "Casein kinase I isoform epsilon (Homo sapiens) (UniProt P49674)", "assay": "CK1epsilon(h) Millipore kinase panel", "conditions": "Compound concentration 1.0 uM"}, "[22]": {"biological_target": "Tyrosine-protein kinase Lck (Homo sapiens) (UniProt P06239)", "assay": "Lck(h) activated Millipore kinase panel", "conditions": "Compound concentration 1.0 uM"}, "[23]": {"biological_target": "Serine/threonine-protein kinase MRCK gamma (Homo sapiens) (UniProt Q6DT37)", "assay": "MRCKgamma(h) Millipore kinase panel", "conditions": "Compound concentration 1.0 uM"}, "[24]": {"biological_target": "Delta-type opioid receptor (Homo sapiens) (UniProt P41143)", "conditions": "Compound concentration 10.0 uM"}, "[25]": {"biological_target": "Dual specificity mitogen-activated protein kinase kinase 3 (Homo sapiens) (UniProt P46734)", "assay": "MKK3(h) Millipore kinase panel", "conditions": "Compound concentration 1.0 uM"}, "[26]": {"biological_target": "Serine/threonine-protein kinase pim-1 (Homo sapiens) (UniProt P11309)", "sequence (P11309 whole entry, looked up)": "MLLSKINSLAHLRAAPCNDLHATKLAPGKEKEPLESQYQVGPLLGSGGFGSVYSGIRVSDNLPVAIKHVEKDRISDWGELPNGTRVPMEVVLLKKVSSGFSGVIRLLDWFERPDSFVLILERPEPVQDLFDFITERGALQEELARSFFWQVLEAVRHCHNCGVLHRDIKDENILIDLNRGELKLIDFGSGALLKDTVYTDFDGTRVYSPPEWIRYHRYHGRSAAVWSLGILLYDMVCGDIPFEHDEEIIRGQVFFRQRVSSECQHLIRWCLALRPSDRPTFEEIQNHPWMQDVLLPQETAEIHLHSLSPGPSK", "assay": "Pim-1(h) Millipore kinase panel", "conditions": "Compound concentration 1.0 uM"}, "[27]": {"biological_target": "Interleukin-1 receptor-associated kinase 4 (Homo sapiens) (UniProt Q9NWZ3)", "assay": "IRAK4(h) Millipore kinase panel", "conditions": "Compound concentration 1.0 uM"}, "[28]": {"biological_target": "Serine/threonine-protein kinase SIK3 (Homo sapiens) (UniProt Q9Y2K2)", "assay": "SIK3(h) Millipore kinase panel", "conditions": "Compound concentration 1.0 uM"}, "[29]": {"biological_target": "Protein kinase C zeta type (Homo sapiens) (UniProt Q05513)", "sequence (Q05513 whole entry)": "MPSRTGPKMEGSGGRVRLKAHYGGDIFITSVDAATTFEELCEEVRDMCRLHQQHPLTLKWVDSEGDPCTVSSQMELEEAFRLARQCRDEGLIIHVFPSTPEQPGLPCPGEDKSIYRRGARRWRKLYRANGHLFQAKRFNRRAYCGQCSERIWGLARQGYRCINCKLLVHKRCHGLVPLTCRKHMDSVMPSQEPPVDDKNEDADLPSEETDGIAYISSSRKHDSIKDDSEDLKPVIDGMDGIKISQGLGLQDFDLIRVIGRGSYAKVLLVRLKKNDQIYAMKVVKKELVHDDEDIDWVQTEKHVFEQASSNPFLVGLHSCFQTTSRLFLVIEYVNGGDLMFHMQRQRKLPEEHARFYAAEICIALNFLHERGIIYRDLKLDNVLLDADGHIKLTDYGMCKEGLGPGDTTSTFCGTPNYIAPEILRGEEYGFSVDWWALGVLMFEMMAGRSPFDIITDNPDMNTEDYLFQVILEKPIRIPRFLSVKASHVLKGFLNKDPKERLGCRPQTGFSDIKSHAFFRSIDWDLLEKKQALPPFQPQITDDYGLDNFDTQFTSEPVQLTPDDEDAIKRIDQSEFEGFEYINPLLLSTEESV", "assay": "PKCzeta(h) Millipore kinase panel", "conditions": "Compound concentration 1.0 uM"}, "[30]": {"biological_target": "Tyrosine-protein kinase receptor UFO (Homo sapiens) (UniProt P30530)", "sequence (P30530 whole entry)": "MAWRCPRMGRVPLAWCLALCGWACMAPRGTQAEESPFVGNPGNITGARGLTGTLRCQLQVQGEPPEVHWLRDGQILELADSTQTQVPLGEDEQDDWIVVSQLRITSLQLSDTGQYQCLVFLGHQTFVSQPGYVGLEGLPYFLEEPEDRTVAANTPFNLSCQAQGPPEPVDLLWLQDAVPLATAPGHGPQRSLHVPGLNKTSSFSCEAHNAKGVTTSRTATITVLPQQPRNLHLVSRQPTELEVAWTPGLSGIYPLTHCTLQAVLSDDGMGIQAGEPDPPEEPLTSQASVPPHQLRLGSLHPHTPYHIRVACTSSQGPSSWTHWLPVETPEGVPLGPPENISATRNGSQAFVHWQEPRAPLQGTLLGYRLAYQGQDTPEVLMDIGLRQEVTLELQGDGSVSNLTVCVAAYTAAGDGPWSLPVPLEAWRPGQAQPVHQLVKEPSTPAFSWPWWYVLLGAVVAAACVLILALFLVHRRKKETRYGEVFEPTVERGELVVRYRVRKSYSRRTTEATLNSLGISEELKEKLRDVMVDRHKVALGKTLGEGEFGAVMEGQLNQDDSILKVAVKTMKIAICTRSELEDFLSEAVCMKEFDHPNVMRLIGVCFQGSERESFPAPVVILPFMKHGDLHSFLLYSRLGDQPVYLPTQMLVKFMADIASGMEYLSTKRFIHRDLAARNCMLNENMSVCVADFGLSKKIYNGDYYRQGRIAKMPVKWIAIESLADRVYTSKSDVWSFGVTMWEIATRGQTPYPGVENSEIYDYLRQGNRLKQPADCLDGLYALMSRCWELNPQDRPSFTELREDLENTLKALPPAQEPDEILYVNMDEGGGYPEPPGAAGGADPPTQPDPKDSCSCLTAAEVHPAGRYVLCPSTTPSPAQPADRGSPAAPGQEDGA", "assay": "Axl(h) Millipore kinase panel", "conditions": "Compound concentration 1.0 uM"}, "[31]": {"biological_target": "GABA-A receptor; anion channel (Rattus norvegicus) (UniProt O09028+P15431+P18506+P18508+P19969+P20236+P23574+P23576+P28471+P28473+P30191+P62813+P63079+P63138+Q91ZM7+Q9ES14)", "conditions": "Compound concentration 10.0 uM"}, "[32]": {"biological_target": "G protein-coupled receptor kinase 3 (Homo sapiens) (UniProt P35626)", "assay": "GRK3(h) Millipore kinase panel", "conditions": "Compound concentration 1.0 uM"}, "[33]": {"biological_target": "Dual specificity mitogen-activated protein kinase kinase 2 (Homo sapiens) (UniProt P36507)", "sequence (P36507 whole entry)": "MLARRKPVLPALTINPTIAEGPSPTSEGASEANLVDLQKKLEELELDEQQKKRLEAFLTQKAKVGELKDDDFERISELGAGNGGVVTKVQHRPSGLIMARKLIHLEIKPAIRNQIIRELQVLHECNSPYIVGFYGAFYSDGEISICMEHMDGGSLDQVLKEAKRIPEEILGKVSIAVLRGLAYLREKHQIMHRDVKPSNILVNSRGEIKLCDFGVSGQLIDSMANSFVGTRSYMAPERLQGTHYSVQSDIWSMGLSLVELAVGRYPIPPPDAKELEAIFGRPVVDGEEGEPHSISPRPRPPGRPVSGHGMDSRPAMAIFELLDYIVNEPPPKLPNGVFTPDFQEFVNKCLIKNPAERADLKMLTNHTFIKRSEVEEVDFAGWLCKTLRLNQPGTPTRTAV", "assay": "MEK2(h) Millipore kinase panel", "conditions": "Compound concentration 1.0 uM"}, "[34]": {"biological_target": "Tyrosine-protein kinase HCK (Homo sapiens) (UniProt P08631)", "assay": "Hck(h) Millipore kinase panel", "conditions": "Compound concentration 1.0 uM"}, "[35]": {"biological_target": "Serine/threonine-protein kinase N1 (Homo sapiens) (UniProt Q16512)", "assay": "PRK1(h) Millipore kinase panel", "conditions": "Compound concentration 1.0 uM"}, "[36]": {"biological_target": "STE20/SPS1-related proline-alanine-rich protein kinase (Homo sapiens) (UniProt Q9UEW8)", "assay": "STK39(h) Millipore kinase panel", "conditions": "Compound concentration 1.0 uM"}, "[37]": {"biological_target": "D(2) dopamine receptor (Homo sapiens) (UniProt P14416)", "conditions": "Compound concentration 10.0 uM"}, "[38]": {"biological_target": "Serine/threonine-protein kinase ULK3 (Homo sapiens) (UniProt Q6PHR2)", "assay": "ULK3(h) Millipore kinase panel", "conditions": "Compound concentration 1.0 uM"}, "[39]": {"biological_target": "Casein kinase II subunit alpha (Homo sapiens) (UniProt P68400)", "assay": "CK2(h) Millipore kinase panel", "conditions": "Compound concentration 1.0 uM"}, "[40]": {"biological_target": "Phosphodiesterase 3 (Homo sapiens) (UniProt Q14432+Q13370)", "assay": "Inhibition of Phosphodiesterase PDE3 at compound concentration of 10.0 uM in the Eurofins-Panlabs enzyme assay (Eurofins_assay_152000)", "type": "protein assay", "parameters": "substrate with concentration 1.01 uM [3H] cAMP + cAMP, incubation time 20 min, incubation temperature 25 C", "conditions": "Compound concentration 10.0 uM"}, "[41]": {"biological_target": "Proto-oncogene tyrosine-protein kinase receptor Ret (Homo sapiens) (UniProt P07949)", "assay": "Ret(h) Millipore kinase panel", "conditions": "Compound concentration 1.0 uM"}, "[42]": {"biological_target": "Tyrosine-protein kinase Fer (Homo sapiens) (UniProt P16591)", "assay": "Fer(h) Millipore kinase panel", "conditions": "Compound concentration 1.0 uM"}, "[43]": {"biological_target": "Serine/threonine-protein kinase D1 (Homo sapiens) (UniProt Q15139)", "assay": "PKCmu(h) Millipore kinase panel", "conditions": "Compound concentration 1.0 uM"}, "[44]": {"biological_target": "Casein kinase II subunit alpha' (Homo sapiens) (UniProt P19784)", "assay": "CK2alpha2(h) Millipore kinase panel", "conditions": "Compound concentration 1.0 uM"}, "[45]": {"biological_target": "MAP/microtubule affinity-regulating kinase 4 (Homo sapiens) (UniProt Q96L34)", "assay": "MARK4(h) Millipore kinase panel", "conditions": "Compound concentration 1.0 uM"}, "[46]": {"biological_target": "Serine/threonine-protein kinase VRK1 (Homo sapiens) (UniProt Q99986)", "assay": "VRK1(h) Millipore kinase panel", "conditions": "Compound concentration 1.0 uM"}, "[47]": {"biological_target": "Glutamate NMDA receptor (Rattus norvegicus) (UniProt P35439+Q00959+Q00960+Q00961+Q62645+Q8VHN2+Q9R1M7)", "conditions": "Compound concentration 10.0 uM"}}, "data": [{"smiles": "CC[C@@H](Nc1c(C#N)c(-c2ccc(-c3cccc(C)c3F)cc2)nc2cnccc12)C(=O)O", "note": "[BAY-091]", "values": [{"measurement": "inhibition", "setting": "[1]", "result": 19.3, "unit": "%"}, {"measurement": "inhibition", "setting": "[2]", "result": 6.65, "unit": "%"}, {"measurement": "inhibition", "setting": "[3]", "result": 11.3, "unit": "%"}, {"measurement": "inhibition", "setting": "[4]", "result": -5.27, "unit": "%"}, {"measurement": "inhibition", "setting": "[5]", "result": 5.28, "unit": "%"}, {"measurement": "inhibition", "setting": "[6]", "result": 3.31, "unit": "%"}, {"measurement": "inhibition", "setting": "[7]", "result": -1.97, "unit": "%"}, {"measurement": "inhibition", "setting": "[8]", "result": 6.44, "unit": "%"}, {"measurement": "inhibition", "setting": "[9]", "result": 8.13, "unit": "%"}, {"measurement": "inhibition", "setting": "[10]", "result": 3.17, "unit": "%"}, {"measurement": "inhibition", "setting": "[11]", "result": -4.26, "unit": "%"}, {"measurement": "inhibition", "setting": "[12]", "result": 7.74, "unit": "%"}, {"measurement": "inhibition", "setting": "[13]", "result": 9.33, "unit": "%"}, {"measurement": "inhibition", "setting": "[14]", "result": 1.43, "unit": "%"}, {"measurement": "inhibition", "setting": "[15]", "result": 10, "unit": "%"}, {"measurement": "inhibition", "setting": "[16]", "result": -0.55, "unit": "%"}, {"measurement": "inhibition", "setting": "[17]", "result": 3.01, "unit": "%"}, {"measurement": "inhibition", "setting": "[18]", "result": 36, "unit": "%"}, {"measurement": "inhibition", "setting": "[19]", "result": 98, "unit": "%"}, {"measurement": "inhibition", "setting": "[20]", "result": 10.4, "unit": "%"}, {"measurement": "inhibition", "setting": "[21]", "result": 8.85, "unit": "%"}, {"measurement": "inhibition", "setting": "[22]", "result": -3.67, "unit": "%"}, {"measurement": "inhibition", "setting": "[23]", "result": 5.46, "unit": "%"}, {"measurement": "inhibition", "setting": "[24]", "result": 12.9, "unit": "%"}, {"measurement": "inhibition", "setting": "[25]", "result": 12.8, "unit": "%"}, {"measurement": "inhibition", "setting": "[26]", "result": -2.53, "unit": "%"}, {"measurement": "inhibition", "setting": "[27]", "result": 6.22, "unit": "%"}, {"measurement": "inhibition", "setting": "[28]", "result": 5.14, "unit": "%"}, {"measurement": "inhibition", "setting": "[29]", "result": -2.41, "unit": "%"}, {"measurement": "inhibition", "setting": "[30]", "result": 12.6, "unit": "%"}, {"measurement": "inhibition", "setting": "[31]", "result": 3, "unit": "%"}, {"measurement": "inhibition", "setting": "[32]", "result": 8.23, "unit": "%"}, {"measurement": "inhibition", "setting": "[33]", "result": -9.56, "unit": "%"}, {"measurement": "inhibition", "setting": "[34]", "result": 0.45, "unit": "%"}, {"measurement": "inhibition", "setting": "[35]", "result": 5.64, "unit": "%"}, {"measurement": "inhibition", "setting": "[36]", "result": 5.6, "unit": "%"}, {"measurement": "inhibition", "setting": "[37]", "result": 8, "unit": "%"}, {"measurement": "inhibition", "setting": "[38]", "result": 0.33, "unit": "%"}, {"measurement": "inhibition", "setting": "[39]", "result": 4.66, "unit": "%"}, {"measurement": "inhibition", "setting": "[40]", "result": 74, "unit": "%"}, {"measurement": "inhibition", "setting": "[41]", "result": -3.56, "unit": "%"}, {"measurement": "inhibition", "setting": "[42]", "result": 5.23, "unit": "%"}, {"measurement": "inhibition", "setting": "[43]", "result": 12.7, "unit": "%"}, {"measurement": "inhibition", "setting": "[44]", "result": -4.36, "unit": "%"}, {"measurement": "inhibition", "setting": "[45]", "result": 5.8, "unit": "%"}, {"measurement": "inhibition", "setting": "[46]", "result": 3.04, "unit": "%"}, {"measurement": "inhibition", "setting": "[47]", "result": -1, "unit": "%"}]}]}
